One assay in a line: cells. The assay is classed as functional, cell-based.
The target of another assay is T1, Exodeoxyribonuclease V (Escherichia coli (strain K12), UniProt P04993+P07648+P08394).
T1 sequence (P04993 whole entry): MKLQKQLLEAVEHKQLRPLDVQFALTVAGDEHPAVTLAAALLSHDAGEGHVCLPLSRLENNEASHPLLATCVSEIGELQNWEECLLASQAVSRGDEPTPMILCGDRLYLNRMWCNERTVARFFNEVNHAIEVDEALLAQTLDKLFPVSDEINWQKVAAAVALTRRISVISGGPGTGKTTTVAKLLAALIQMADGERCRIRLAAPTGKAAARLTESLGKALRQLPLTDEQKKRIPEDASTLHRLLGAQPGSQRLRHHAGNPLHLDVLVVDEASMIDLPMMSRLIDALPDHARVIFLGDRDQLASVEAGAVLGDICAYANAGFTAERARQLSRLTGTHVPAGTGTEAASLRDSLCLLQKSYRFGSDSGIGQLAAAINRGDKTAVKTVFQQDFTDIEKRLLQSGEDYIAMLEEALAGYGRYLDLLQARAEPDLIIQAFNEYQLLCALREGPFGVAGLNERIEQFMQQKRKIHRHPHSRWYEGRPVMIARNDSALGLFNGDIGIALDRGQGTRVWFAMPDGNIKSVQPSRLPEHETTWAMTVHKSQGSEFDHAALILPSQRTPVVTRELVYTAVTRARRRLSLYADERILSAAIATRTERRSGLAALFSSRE
T1 sequence (P07648 whole entry): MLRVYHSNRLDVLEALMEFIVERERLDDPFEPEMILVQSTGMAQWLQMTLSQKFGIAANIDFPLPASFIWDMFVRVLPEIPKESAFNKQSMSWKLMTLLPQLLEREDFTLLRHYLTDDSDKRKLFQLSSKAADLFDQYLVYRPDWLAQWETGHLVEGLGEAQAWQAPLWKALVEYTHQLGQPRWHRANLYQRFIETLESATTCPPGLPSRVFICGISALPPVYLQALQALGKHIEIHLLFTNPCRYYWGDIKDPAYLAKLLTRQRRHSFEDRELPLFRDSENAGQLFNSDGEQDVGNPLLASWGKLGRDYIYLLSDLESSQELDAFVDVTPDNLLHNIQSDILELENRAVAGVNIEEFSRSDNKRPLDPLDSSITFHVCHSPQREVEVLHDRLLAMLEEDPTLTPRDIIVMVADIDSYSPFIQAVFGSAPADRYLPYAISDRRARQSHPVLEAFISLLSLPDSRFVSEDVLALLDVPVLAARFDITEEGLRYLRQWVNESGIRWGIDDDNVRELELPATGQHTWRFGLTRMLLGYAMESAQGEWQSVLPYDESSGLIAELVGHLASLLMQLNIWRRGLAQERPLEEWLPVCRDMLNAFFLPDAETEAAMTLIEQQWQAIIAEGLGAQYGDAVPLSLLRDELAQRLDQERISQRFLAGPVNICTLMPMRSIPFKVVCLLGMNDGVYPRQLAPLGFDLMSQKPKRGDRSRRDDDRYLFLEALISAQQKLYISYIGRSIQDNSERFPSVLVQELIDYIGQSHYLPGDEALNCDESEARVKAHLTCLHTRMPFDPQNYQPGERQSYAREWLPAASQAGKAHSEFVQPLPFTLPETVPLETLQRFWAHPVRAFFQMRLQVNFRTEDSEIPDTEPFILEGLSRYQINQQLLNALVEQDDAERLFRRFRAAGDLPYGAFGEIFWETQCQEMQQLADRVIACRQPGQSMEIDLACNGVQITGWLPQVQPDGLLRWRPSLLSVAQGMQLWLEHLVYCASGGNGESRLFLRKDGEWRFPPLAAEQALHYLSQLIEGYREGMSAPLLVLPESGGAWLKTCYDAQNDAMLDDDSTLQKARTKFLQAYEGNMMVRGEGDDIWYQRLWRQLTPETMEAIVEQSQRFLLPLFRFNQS
T1 sequence (P08394 whole entry): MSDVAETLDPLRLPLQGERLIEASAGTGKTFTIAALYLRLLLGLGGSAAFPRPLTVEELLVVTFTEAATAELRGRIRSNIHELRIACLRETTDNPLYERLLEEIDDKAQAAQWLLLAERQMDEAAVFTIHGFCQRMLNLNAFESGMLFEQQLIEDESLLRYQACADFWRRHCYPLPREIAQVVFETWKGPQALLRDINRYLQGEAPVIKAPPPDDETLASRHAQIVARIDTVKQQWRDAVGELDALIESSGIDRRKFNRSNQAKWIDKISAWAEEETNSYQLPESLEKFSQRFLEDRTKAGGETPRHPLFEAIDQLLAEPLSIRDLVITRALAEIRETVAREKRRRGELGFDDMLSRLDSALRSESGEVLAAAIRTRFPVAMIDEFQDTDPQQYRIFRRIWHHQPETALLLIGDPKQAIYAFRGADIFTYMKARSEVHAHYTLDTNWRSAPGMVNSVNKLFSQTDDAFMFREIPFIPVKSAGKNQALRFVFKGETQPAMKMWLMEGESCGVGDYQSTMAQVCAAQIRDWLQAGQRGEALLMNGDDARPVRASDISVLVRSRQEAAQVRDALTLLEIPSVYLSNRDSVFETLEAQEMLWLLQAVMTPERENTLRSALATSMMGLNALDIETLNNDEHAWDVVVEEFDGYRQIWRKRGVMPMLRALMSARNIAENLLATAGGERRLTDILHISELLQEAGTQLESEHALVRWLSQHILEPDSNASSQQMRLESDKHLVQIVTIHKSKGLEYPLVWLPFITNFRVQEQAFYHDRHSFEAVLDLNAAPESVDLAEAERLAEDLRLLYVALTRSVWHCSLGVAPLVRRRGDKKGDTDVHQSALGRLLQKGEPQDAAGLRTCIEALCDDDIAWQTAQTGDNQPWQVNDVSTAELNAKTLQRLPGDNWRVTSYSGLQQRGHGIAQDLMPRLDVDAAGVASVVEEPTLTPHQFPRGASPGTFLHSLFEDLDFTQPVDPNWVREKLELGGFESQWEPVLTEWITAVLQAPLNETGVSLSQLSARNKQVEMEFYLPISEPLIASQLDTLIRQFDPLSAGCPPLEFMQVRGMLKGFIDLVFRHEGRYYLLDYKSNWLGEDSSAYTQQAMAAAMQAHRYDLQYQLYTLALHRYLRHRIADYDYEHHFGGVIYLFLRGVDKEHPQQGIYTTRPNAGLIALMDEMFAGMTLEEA
Briefly: E. coli RecBCD inhibitors, dose response, counter-screen for AddAB inhibitor project, absorbance, V66 E. coli, mutant T4 phage (AID 492957). The assay is classed as functional, cell-based, Escherichia coli str. K-12 substr. MG1655. In general terms: Counterscreens check selectivity or assay interference.

The text below walks through data of ChEMBL document CHEMBL1201862, “PubChem BioAssay data set” (2004).

SMILES strings stand for the structures. Active and inactive are the calls of the source. Bounds are passed on as bounds.
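Wherever EC50 is given: proteasome chymotrypsin-like activity measured in U2OS cells; potency is for inhibition of proteasome activity.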

As to `CCCCC(=O)NC(c1ccc(N(CC)CC)cc1)c1ccc2cccnc2c1O` (configuration not stated), the EC50 (commonly the concentration at which the effect is half-maximal) in the assay “cells” is > 350 µM (not active). In addition, the IC50 (as a rule, the concentration that gives 50% inhibition) at Exodeoxyribonuclease V was > 119 µM (inactive).
